Measured values from patent publication US8497278B2, “Imidazo[1,2-a]pyridine compounds” (priority 2008, dated 2013).

How the values were obtained:
rhesus monkeys = experiment: Rhesus monkey conflict test; format: in vivo; details: cumulative dosing
Text: Conflict protocol: The conflict procedure is a well established operant conditioning approach to evaluate anxiolytic-like effects of test compounds. In this procedure, positively-reinforced behavior is suppressed by response-contingent administration of a noxious stimulus (i.e., mild electric shock). Compounds with anxiolytic effects in humans (e.g., benzodiazepines) characteristically increase rates of responding that are suppressed by shock and are referred to as anti-conflict or anxiolytic-like effects. […] In addition to anxiolytic-like effects, conflict procedures also provide an assessment of the ability of the animal to perform operant lever pressing. This is typically assessed by including lever pressing in the absence of the noxious stimulus. Most anxiolytic compounds will decrease rates of responding in the absence of shock at doses higher than those that induce anxiolytic-like effects. The effects contributing to anxiolytic-induced decreases in non-suppressed responding are not well understood, but likely consist of a combination of motor co-ordination deficits and sedative effects.
Adult rhesus monkeys were used in these studies (n=1-4). Weights of the monkeys ranged from 6.2 to 10.5 kg. The animals had been previously trained using the conflict procedure. Animals were maintained at 85-95% of their free-feeding weights by manipulation of food intake. Monkeys were individually housed with water available ad libitum, and maintained on a 12 hour lights-on/12 hour lights-off cycle (lights on at 0600 a.m.). Monkeys received Harlan Teklad diet (15% Primate Diet) as well as supplemental feeding (fruits, vegetables, and commercially available primate treats) daily. They were also given toys and video enrichment when not in an experimental session. Each animal was prepared prior to the study with a chronic indwelling venous catheter for drug delivery. A polyvinyl chloride catheter was implanted in a jugular, femoral or brachial vein under isoflurane anesthesia and aseptic conditions. The proximal end of the catheter terminated above the right atrium, and the distal end was passed subcutaneously to exit in the midscapular region. Experimental sessions began 5-7 days following surgery. Catheters had been implanted approximately 3 months to 1 year prior to the initiation of the study. During experimental sessions, monkeys were seated in primate chairs that were placed in ventilated sound-attenuating chambers. A single response lever was mounted on the wall of the chamber in front of the monkey. Each press of a lever produced an audible click and was recorded as a response via electromechanical equipment, a computer interface, and PC with specialized software. Food pellets could be delivered into a tray located next to the lever. Mild electric shock could be delivered to the bottom of the feet via brass electrodes that were fitted to shoes. Red and green lights mounted above the levers could be illuminated to serve as visual stimuli.
Monkeys were trained under a multiple schedule of food reinforcement adapted from Spealman (1979). A daily session consisted of 4 cycles, each preceded by a 10-min time out period in which all lights in the chamber were off and responding had no programmed consequences. Each cycle consisted of two components, component 1 and 2. Component 1 was signaled by red stimulus lights and consisted of an 18-response schedule (FR18) of food pellet delivery (i.e., the animal receives a food pellet following 18 responses). Component 2, signaled by green stimulus lights, followed immediately and consisted of the FR18 schedule of food delivery combined with a FR20 schedule of foot shock delivery (1.5-3.0 mA, adjusted for each monkey based on individual performance, 0.25 sec duration). Delivery of a food pellet (FR18 schedule) was followed by a 10 sec time out in which responses had no programmed consequences. […]

Swiss Webster (CFW) mice = experiment: Four Plate Test (FPT); format: in vivo; details: mouse, 30 min before test, 2 min session
Text: Four Plate Test (FPT) Protocol: The four plate test (FPT) is an animal model of anxiety in which simple ongoing behavior (exploration of novel surroundings) is suppressed by the delivery of mild electric foot-shock contingent to quadrant crossing (Aron, et al., 1971). Clinically effective classes of anxiolytic compounds such as benzodiazepines, selective serotonin reuptake inhibitors, or 5-HT1A receptor agonists produce a marked anti-punishment effect (an increase in punished crossings), which is thought to indicate anxiolytic activity (Aron, et al., 1971; Bourin, et al., 1992; Hascoet, et al., 2000; Ring, et al., 2006). The four plate apparatus (Bioseb, Chaville France) consists of a cage (18×25×16 cm) floored by four identical rectangular metal plates (8×11 cm) separated from one another by a gap of 4 mm. The plates are connected to a shocker unit that can generate electric foot shocks.
Male Swiss Webster (CFW) mice from Charles River (Wilmington, Mass.) were used for the FPT. Mice were received at 3-weeks of age. Upon receipt, mice were assigned unique identification numbers (tail marked) and were group housed with 4 mice per cage in mouse ventilated racks. All animals remained housed in groups of four during the remainder of the study. All mice were acclimated to the colony room for at least one week prior to testing and were subsequently tested at an average age of 4 weeks of age. During the period of acclimation, mice […] were examined on a regular basis, handled, and weighed to assure adequate healtH, D and suitability. Animals were maintained on a 12/12 light/dark cycle. The room temperature was maintained between 20 and 23° C. with a relative humidity maintained between 30% and 70%. Chow and water were provided ad libitum for the duration of the study. In each test, animals were randomly assigned across treatment groups. Alprazolam (0.3 mg/kg) was used as the positive control. Compounds of the present invention, vehicle (45% hydroxypropyl beta-cyclodextrin) and alprazolam were administered orally to all groups (n=10 mice per group) 30 minutes prior to behavioral testing. Following pretreatment, mice were gently placed in the four plate chamber and allowed to explore the enclosure for 18 seconds. After the exploration period, every time the mouse crossed from one plate to another, the experimenter, blind to the dosing conditions, administered a mild electric foot-shock, and referred to as a punished crossing. The intensity and duration of the foot-shock were 0.5 mA for 0.5 seconds. The number of punished crossings was recorded during the 2 min test session. The plates were thoroughly cleaned with 70% ethanol immediately after each mouse. All data were analyzed using an analysis of variance (ANOVA) followed by Fisher's PLSD post hoc test. An effect was considered significance if p<0.05. Statistical outliers above or below 2 standard deviations from the mean in any of the […] were removed from the final analysis.

[1] = target: T1, α1 subtype containing GABA-A receptors (Homo sapiens, UniProt P14867+P18507); experiment: Two-electrode voltage clamp electrophysiology in Xenopus oocytes, potentiation of GABA EC20 response, α1; format: cell-based; details: 100 nM compound; for activation at 0.1 µM: read-out: Percentage of potentiation alpha1
T1 construct: expressed in transfected cells; host or cells: Xenopus laevis oocytes, cRNA injected
T1 sequence (P14867 28-456): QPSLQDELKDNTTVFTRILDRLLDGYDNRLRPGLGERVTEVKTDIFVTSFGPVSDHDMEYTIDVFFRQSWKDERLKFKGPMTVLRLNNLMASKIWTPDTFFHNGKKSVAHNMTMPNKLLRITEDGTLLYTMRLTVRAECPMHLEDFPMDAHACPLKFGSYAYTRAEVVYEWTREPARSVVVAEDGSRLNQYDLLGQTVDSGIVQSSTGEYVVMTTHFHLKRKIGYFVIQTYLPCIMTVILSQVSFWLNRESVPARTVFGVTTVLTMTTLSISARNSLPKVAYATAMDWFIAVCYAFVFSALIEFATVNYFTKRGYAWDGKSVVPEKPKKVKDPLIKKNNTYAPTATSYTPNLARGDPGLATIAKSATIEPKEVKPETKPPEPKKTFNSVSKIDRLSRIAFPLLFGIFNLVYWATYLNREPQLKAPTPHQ
T1 sequence (P28472 26-473 partner): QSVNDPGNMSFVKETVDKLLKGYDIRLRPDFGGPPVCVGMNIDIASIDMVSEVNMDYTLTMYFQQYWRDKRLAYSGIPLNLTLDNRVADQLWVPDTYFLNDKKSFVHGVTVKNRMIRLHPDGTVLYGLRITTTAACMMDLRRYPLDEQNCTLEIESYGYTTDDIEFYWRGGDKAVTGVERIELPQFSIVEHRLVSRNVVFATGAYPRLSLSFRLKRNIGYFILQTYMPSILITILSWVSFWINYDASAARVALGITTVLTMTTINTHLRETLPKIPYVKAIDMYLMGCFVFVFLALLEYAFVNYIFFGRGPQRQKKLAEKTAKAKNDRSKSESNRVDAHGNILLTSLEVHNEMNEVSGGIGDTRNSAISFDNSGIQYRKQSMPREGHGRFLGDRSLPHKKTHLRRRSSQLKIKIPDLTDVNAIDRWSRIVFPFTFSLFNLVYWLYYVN
T1 sequence (P18507 40-475): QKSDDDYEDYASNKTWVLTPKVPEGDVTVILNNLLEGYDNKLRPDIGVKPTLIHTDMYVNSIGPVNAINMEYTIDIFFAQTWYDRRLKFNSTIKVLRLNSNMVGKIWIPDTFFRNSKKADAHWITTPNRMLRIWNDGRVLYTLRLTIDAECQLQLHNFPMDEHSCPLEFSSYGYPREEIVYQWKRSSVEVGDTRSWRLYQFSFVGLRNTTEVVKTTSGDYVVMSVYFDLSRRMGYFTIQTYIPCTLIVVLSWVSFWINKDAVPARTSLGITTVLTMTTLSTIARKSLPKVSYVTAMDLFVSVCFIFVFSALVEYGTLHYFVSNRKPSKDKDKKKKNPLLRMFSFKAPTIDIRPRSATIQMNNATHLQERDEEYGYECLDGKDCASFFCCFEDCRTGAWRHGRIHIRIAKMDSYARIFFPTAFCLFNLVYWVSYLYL
Method in brief: (§1)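 Test compounds (100 nM) were assessed for enhancement of a 60 μM (EC20) GABA current in two-electrode-clamped oocytes (−80 mV, ND96 pH 7.5) injected with human αx (1, 2, 3 or 5), β3 and γ2L cRNA. Each oocyte received a 1 μM chlordiazepoxide standard first and was excluded if expression or γ2L incorporation was insufficient.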

[2] = target: T2, α2 subtype containing GABA-A receptors (Homo sapiens, UniProt P18507+P47869); experiment: Two-electrode voltage clamp electrophysiology in Xenopus oocytes, potentiation of GABA EC20 response, α2; format: cell-based; details: 100 nM compound; for activation at 0.1 µM: read-out: Percentage of potentiation alpha2
T2 construct: expressed in transfected cells; host or cells: Xenopus laevis oocytes, cRNA injected
T2 sequence (P47869 29-451): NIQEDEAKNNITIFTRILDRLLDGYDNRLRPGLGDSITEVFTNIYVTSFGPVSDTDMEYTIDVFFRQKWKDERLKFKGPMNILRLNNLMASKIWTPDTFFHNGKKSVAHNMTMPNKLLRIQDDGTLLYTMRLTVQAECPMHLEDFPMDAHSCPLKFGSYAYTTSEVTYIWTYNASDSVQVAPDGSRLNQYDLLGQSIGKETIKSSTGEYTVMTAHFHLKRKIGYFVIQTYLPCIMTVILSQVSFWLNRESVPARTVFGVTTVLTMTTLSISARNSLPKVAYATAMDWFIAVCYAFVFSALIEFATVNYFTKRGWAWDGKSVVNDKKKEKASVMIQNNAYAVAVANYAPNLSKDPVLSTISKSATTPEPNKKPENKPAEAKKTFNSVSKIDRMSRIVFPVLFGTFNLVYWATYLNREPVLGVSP
T2 sequence (P28472 26-473 partner): as the sequence (P28472 26-473 partner) above
T2 sequence (P18507 40-475): as the sequence (P18507 40-475) above
Method in brief: as §1

[3] = test system: central benzodiazepine receptors; experiment: Central benzodiazepine receptor binding (test of Speth et al.); details: 1000 nM of the compound
Method in brief: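 Values are percent inhibition of central benzodiazepine receptor binding at 1000 nM compound (initial single-point screen at 1.0E-09, 1.0E-07 and 1.0E-05 M). Speth et al. binding test; nonspecific binding defined with excess unlabelled ligand and subtracted from total.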

In the case of Cc1nnc2n1-c1ccc(Cl)cc1C(c1ccccc1)=NC2 [Alprazolam, reference compound], the “Non-Suppressed Response Rates Mean ± S.E.M.” value (rhesus monkeys; 0.003 mg/kg IV) is reported as 2.18 ± 0.26 Responses/Second, the “Suppressed Response Rates Mean ± S.E.M.” value (rhesus monkeys; 0.003 mg/kg IV) is reported as 0.04 ± 0.02 Responses/Second and the “Non-Suppressed Response Rates Mean ± S.E.M.” value (rhesus monkeys; 0.01 mg/kg IV) is reported as 2.62 ± 0.32 Responses/Second. The “Suppressed Response Rates Mean ± S.E.M.” value (rhesus monkeys; 0.01 mg/kg IV) was 0.76 ± 0.26 Responses/Second, the “Non-Suppressed Response Rates Mean ± S.E.M.” value (rhesus monkeys; 0.03 mg/kg IV) was 2.38 ± 0.36 Responses/Second and the “Suppressed Response Rates Mean ± S.E.M.” value (rhesus monkeys; 0.03 mg/kg IV) was 2.28 ± 0.55 Responses/Second. The “Non-Suppressed Response Rates Mean ± S.E.M.” value (rhesus monkeys; 0.1 mg/kg IV) was 1.16 ± 0.26 Responses/Second and the “Suppressed Response Rates Mean ± S.E.M.” value (rhesus monkeys; 0.1 mg/kg IV) was 1.44 ± 0.57 Responses/Second.

For Fc1ccc(-c2nc3ccc(F)cn3c2Cn2nccn2)cc1 [Compound 60, 3-((2H-1,2,3-triazol-2-yl)methyl)-6-fluoro-2-(4-fluorophenyl)H-imidazo[1,2-a]pyridine], the “Number of Punished Crossings Mean ± S.E.M.” value (“Number” below) (Swiss Webster (CFW) mice; 3 mg/kg PO) was 6.3 ± 0.45, the “Number” value (Swiss Webster (CFW) mice; 10 mg/kg PO) was 6.3 ± 0.70 and the “Number” value (Swiss Webster (CFW) mice; 30 mg/kg PO) was 6.0 ± 0.30. For the same compound, the “Percentage of potentiation alpha1” value [1] was 0 (percentage of potentiation is between about 10% to about −10%), the “Percentage of potentiation alpha2” value [2] was “+ (percentage of potentiation is greater than or equal to 10% but less than 50% in the presence of 100 nM of the compound)” and the “% Inhibition at 1000 nM for CBZD” value [3] was “++ (percentage of inhibition of central BZD site binding is greater than 80% in the presence of 1000 nM of the compound)”.

For Cc1nnc(Cc2c(-c3ccc(Cl)cc3)nc3ccccn23)o1 [Compound 204, 2-((2-(4-chlorophenyl)imidazo[1,2-a]pyridin-3-yl)methyl)-5-methyl-1,3,4-oxadiazole], the activation at 0.1 µM [1] was -10 to 10%, the activation at 0.1 µM [2] was 10 to 50% and the “% Inhibition at 1000 nM for CBZD” value [3] was “++ (percentage of inhibition of central BZD site binding is greater than 80% in the presence of 1000 nM of the compound)”.

Cn1ccnc1Cc1c(-c2ccc(Cl)cc2)nc2ccccn12 [Compound 206, 2-(4-chlorophenyl)-3-((1-methyl-1H-imidazol-2-yl)methyl)imidazo[1,2-a]pyridine] was tested, and the activation at 0.1 µM [1] was ≥ 50%, the activation at 0.1 µM [2] was ≥ 50% and the “% Inhibition at 1000 nM for CBZD” value [3] was “++ (percentage of inhibition of central BZD site binding is greater than 80% in the presence of 1000 nM of the compound)”.

In the case of Cn1ncnc1Cc1c(-c2ccc(Cl)cc2)nc2ccccn12 [Compound 207, 2-(4-Chlorophenyl)-3-((1-methyl-1H-1,2,4-triazol-5-yl)methyl)imidazo[1,2-a]pyridine], the activation at 0.1 µM [1] is reported as 10 to 50%, the activation at 0.1 µM [2] is reported as 10 to 50% and the “% Inhibition at 1000 nM for CBZD” value [3] is reported as “++ (percentage of inhibition of central BZD site binding is greater than 80% in the presence of 1000 nM of the compound)”.

For Cc1nn(C)nc1Cc1c(-c2ccc(Cl)cc2)nc2ccc(Cl)cn12 [Compound 229, 6-Chloro-2-(4-chlorophenyl)-3-((2,5-dimethyl-2H-1,2,3-triazol-4-yl)methyl)imidazo[1,2-a]pyridine], the activation at 0.1 µM [1] was 10 to 50%, the activation at 0.1 µM [2] was 10 to 50% and the “% Inhibition at 1000 nM for CBZD” value [3] was “++ (percentage of inhibition of central BZD site binding is greater than 80% in the presence of 1000 nM of the compound)”.

With Cc1nnc(Cc2c(-c3ccc(Cl)cc3)nc3ccccn23)[nH]1 [Compound 233, 2-(4-chlorophenyl)-3-((5-methyl-4H-1,2,4-triazol-3-yl)methyl)imidazo[1,2-a]pyridine] the activation at 0.1 µM [1] was 10 to 50%, the activation at 0.1 µM [2] was ≥ 50% and the “% Inhibition at 1000 nM for CBZD” value [3] was “++ (percentage of inhibition of central BZD site binding is greater than 80% in the presence of 1000 nM of the compound)”.

For Cc1nnc(Cc2c(-c3ccccc3)nc3ccc(Cl)cn23)[nH]1 [Compound 234, 6-chloro-3-((5-methyl-4H-1,2,4-triazol-3-yl)methyl)-2-phenylimidazo[1,2-a]pyridine], the activation at 0.1 µM [1] was 10 to 50%, the activation at 0.1 µM [2] was ≥ 50% and the “% Inhibition at 1000 nM for CBZD” value [3] was “++ (percentage of inhibition of central BZD site binding is greater than 80% in the presence of 1000 nM of the compound)”.

In the case of CN(C)CCNC1=CC(=O)N(Cc2c(-c3ccc(Cl)cc3)nc3ccccn23)C1 [Compound 237, 1-((2-(4-chlorophenyl)imidazo[1,2-a]pyridin-3-yl)methyl)-4-(2-(dimethylamino)ethylamino)-1H-pyrrol-2(5H)-one], the activation at 0.1 µM [1] is reported as -10 to 10%, the activation at 0.1 µM [2] is reported as 10 to 50% and the “% Inhibition at 1000 nM for CBZD” value [3] is reported as “++ (percentage of inhibition of central BZD site binding is greater than 80% in the presence of 1000 nM of the compound)”.

For CN1CCN(C2=CC(=O)N(Cc3c(-c4ccc(Cl)cc4)nc4ccccn34)C2)CC1 [Compound 238, 1-((2-(4-chlorophenyl)imidazo[1,2-a]pyridin-3-yl)methyl)-4-(4-methylpiperazin-1-yl)-1H-pyrrol-2(5H)-one], the activation at 0.1 µM [1] was 10 to 50%, the activation at 0.1 µM [2] was 10 to 50% and the “% Inhibition at 1000 nM for CBZD” value [3] was “++ (percentage of inhibition of central BZD site binding is greater than 80% in the presence of 1000 nM of the compound)”.

With CN(C)CCNc1cc(Cc2c(-c3ccc(Cl)cc3)nc3ccccn23)ncn1 [Compound 243, N^1-(6-((2-(4-chlorophenyl)imidazo[1,2-a]pyridin-3-yl)methyl)pyrimidin-4-yl)-N^2,N^2-dimethylethane-1,2-diamine] the activation at 0.1 µM [1] was 10 to 50%, the activation at 0.1 µM [2] was 10 to 50% and the “% Inhibition at 1000 nM for CBZD” value [3] was “++ (percentage of inhibition of central BZD site binding is greater than 80% in the presence of 1000 nM of the compound)”.
